Data on 16 molecules can be found in patent publication US11591355B2 (Peloton Therapeutics, Inc., priority 2017, dated 2023).

As a reminder, the IC50 is the concentration needed to halve the response being measured.

The target of test [1] is T1, CD73 on U138 human neuroglioma cells (Homo sapiens, UniProt P21589).
T1 construct: U138 cells were obtained from ATCC and cultured in DMEM with 10% FBS; host or cells: U138 human neuroglioma cells
T1 sequence (P21589 27-549): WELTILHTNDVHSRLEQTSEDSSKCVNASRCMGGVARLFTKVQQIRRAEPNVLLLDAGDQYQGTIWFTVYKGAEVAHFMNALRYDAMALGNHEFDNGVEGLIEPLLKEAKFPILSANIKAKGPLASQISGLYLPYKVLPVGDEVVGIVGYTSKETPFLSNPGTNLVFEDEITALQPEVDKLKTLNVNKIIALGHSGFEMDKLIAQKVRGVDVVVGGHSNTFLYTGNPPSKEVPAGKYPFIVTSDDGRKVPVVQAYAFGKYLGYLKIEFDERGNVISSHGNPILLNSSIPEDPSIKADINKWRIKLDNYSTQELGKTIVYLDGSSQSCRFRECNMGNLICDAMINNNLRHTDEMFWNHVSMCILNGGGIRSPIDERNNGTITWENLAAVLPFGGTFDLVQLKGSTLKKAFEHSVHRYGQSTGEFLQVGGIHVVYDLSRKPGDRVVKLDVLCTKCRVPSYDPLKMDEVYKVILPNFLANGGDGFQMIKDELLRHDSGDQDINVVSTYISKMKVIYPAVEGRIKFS
In words: CD73 Cell-Based Assay. The settings on record: U138 cells, AMP substrate, 2 hours at 37° C., inorganic phosphate by malachite green. A digest of the protocol:
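Whole U138 cells washed free of phosphate were incubated with 200 μM AMP (mixture concentration before equal-volume addition) plus compound in HEPES-buffered saline, pH 7.4, for 2 h at 37 °C, 5% CO2. Adenosine-forming activity read as inorganic phosphate released into supernatant by malachite green.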

The target in a further test is T2, Human CD73 (Homo sapiens, UniProt P21589).
T2 construct: purchased R&D Systems; host or cells: CHO cells
T2 sequence (P21589 27-549): T1 sequence (P21589 27-549)
Kind of test: CD73 Enzyme Assay. The class given is biochemical. The settings on record: 0.25 nM hCD73, 25 μM AMP, kinetic read at 360 nm; read-out: CD73 Enzyme Assay IC50.

Turning to `O=P(O)(O)COC[C@H]1O[C@@H](n2ccc3c(NC4CCOCC4)nc(Cl)nc32)[C@H](O)[C@@H]1O` [Compound 99, [(2R,3S,4R,5R)-5-[2-chloro-4-(tetrahydro-pyran-4-ylamino)-pyrrolo[2,3-d]-pyrimidin-7-yl]-3,4-dihydroxy-tetrahydro-furan-2-yl]methoxy-methylphosphonic acid], the IC50 (in test [1]; on Human CD73) was 10 to 100 nM throughout.

Turning to `O=P(O)(O)COC[C@H]1O[C@@H](n2ccc3c(N(CC4CC4)C4CCCC4)nc(Cl)nc32)[C@H](O)[C@@H]1O` [Compound 196, [(2R,3S,4R,5R)-5-[2-chloro-4-[cyclopentyl-(cyclopropylmethyl)-amino]pyrrolo[2,3-d]-pyrimidin-7-yl]-3,4-dihydroxy-tetrahydro-furan-2-yl]methoxy-methylphosphonic acid], the IC50 (in test [1]; on Human CD73) was below 10 nM each time.

Regarding `O=P(O)(O)COC[C@H]1O[C@@H](n2ccc3c(NC4CCCC4)nc(OCCO)nc32)[C@H](O)[C@@H]1O` [Compound 257, ((((2R,3S,4R,5R)-5-(4-(cyclopentylamino)-2-(2-hydroxyethoxy)-7H-pyrrolo[2,3-d]pyrimidin-7-yl)-3,4-dihydroxytetrahydrofuran-2-yl)methoxy)methyl)phosphonic acid], the IC50 (in test [1]; on Human CD73) was below 10 nM each time.

Turning to `O=P(O)(O)COC[C@H]1O[C@H](c2csc3c(N4CC5CCCC5C4)nc(Cl)nc23)[C@H](O)[C@@H]1O` (stereo partly drawn) [Compound 304, [(2R,3S,4R,5R)-5-[4-(3,3a,4,5,6,6a-hexa-hydro-1H-cyclopenta-[c]pyrrol-2-yl)-2-chloro-thieno[3,2-d]-pyrimidin-7-yl]-3,4-dihydroxy-tetrahydro-furan-2-yl]methoxy-methylphosphonic acid], the IC50 (in test [1]; on Human CD73) was above 1000 nM throughout.

Take `O=P(O)(O)COC[C@H]1O[C@@H](n2cnc3c(NCc4ccccc4)cc(Cl)nc32)[C@H](O)[C@@H]1O` [Compound 57, [(2R,3S,4R,5R)-5-[7-(benzylamino)-5-chloro-imidazo[4,5-b]pyridin-3-yl]-3,4-dihydroxy-tetrahydrofuran-2-yl]methoxymethylphosphonic acid]: the half-maximal inhibitory concentration (IC50) (in test [1]; on Human CD73) was 100 to 1000 nM each time.

In the case of `Cc1ccc([C@@H](C)Nc2nc(Cl)nc3c2ccn3[C@@H]2O[C@H](CS(=O)(=O)CP(=O)(O)O)[C@@H](O)[C@H]2O)cc1` [Compound 169, [(2S,3S,4R,5R)-5-[2-chloro-4-[[(1R)-1-(p-tolyl)ethyl]amino]-pyrrolo[2,3-d]-pyrimidin-7-yl]-3,4-dihydroxy-tetrahydro-furan-2-yl]methyl-sulfonylmethylphos-phonic acid], the IC50 (in test [1]; on Human CD73) was below 10 nM each time.

For `C[C@@H](Nc1nc(Cl)nc2c1ccn2[C@@H]1O[C@H](CS(=O)(=O)CP(=O)(O)O)[C@@H](O)[C@H]1O)c1ccc(F)cc1F` [Compound 178, (((((2S,3S,4R,5R)-5-(2-chloro-4-(((R)-1-(2,4-difluorophenyl)ethyl)amino)-7H-pyrrolo[2,3-d]pyrimidin-7-yl)-3,4-dihydroxytetrahydrofuran-2-yl)methyl)sulfonyl)methyl)phosphonic acid], the IC50 (in test [1]; on Human CD73) was below 10 nM in each case.

For the molecule `C[C@@H](Nc1nc(Cl)nc2c1ccn2[C@@H]1O[C@H](COCP(=O)(O)O)[C@@H](O)[C@H]1O)c1ccc(F)cc1F` [Compound 144, [(2R,3S,4R,5R)-5-[2-chloro-4-[[(1R)-1-(2,4-difluorophenyl)-ethyl]amino]pyrrolo-[2,3-d]pyrimidin-7-yl]-3,4-dihydroxy-tetrahydrofuran-2-yl]-methoxymethylphos-phonic acid], the IC50 (in test [1]; on Human CD73) was below 10 nM each time.

On to `O=P(O)(O)COC[C@H]1O[C@H](c2c[nH]c3c(N4CC5CCCC5C4)nc(Cl)nc23)[C@H](O)[C@@H]1O` (stereo partly drawn) [Compound 294, [(2R,3S,4R,5R)-5-[4-(3,3a,4,5,6,6a-hexa-hydro-1H-cyclopenta-[c]pyrrol-2-yl)-2-chloro-5H-pyrrolo[3,2-d]pyrimidin-7-yl]-3,4-dihydroxy-tetrahydro-furan-2-yl]methoxy-methylphosphonic acid], for which the IC50 in test [1] was below 10 nM; at Human CD73, 10 to 100 nM.

In the case of `N#Cc1nc(N2CC3CCCC3C2)c2cnn([C@@H]3O[C@H](CS(=O)(=O)CP(=O)(O)O)[C@@H](O)[C@H]3O)c2n1` (stereo partly drawn) [Compound 299, [(2S,3S,4R,5R)-5-[4-(3,3a,4,5,6,6a-hexa-hydro-1H-cyclopenta-[c]pyrrol-2-yl)-6-cyano-pyrazolo[3,4-d]-pyrimidin-1-yl]-3,4-dihydroxy-tetrahydro-furan-2-yl]methyl-sulfonylmethylphos-phonic acid], the IC50 (in test [1]; on Human CD73) was below 10 nM in each case.

As for `C[C@@H](Nc1nc(C#N)nc2c1ccn2[C@@H]1O[C@H](COCP(=O)(O)O)[C@@H](O)[C@H]1O)c1ccc(F)cn1` [Compound 145, [(2R,3S,4R,5R)-5-[2-cyano-4-[[(1R)-1-(5-fluoro-2-pyridyl)ethyl]-amino]pyrrolo[2,3-d]-pyrimidin-7-yl]-3,4-dihydroxy-tetrahydro-furan-2-yl]methoxy-methylphosphonic acid], the IC50 in test [1] was 10 to 100 nM; at Human CD73 it was 100 to 1000 nM.

As for `CC(O)COc1nc(NC2CCCC2)c2ccn([C@@H]3O[C@H](COCP(=O)(O)O)[C@@H](O)[C@H]3O)c2n1` (stereo partly drawn) [Compound 263, [(2R,3S,4R,5R)-5-[4-(cyclopentylamino)-2-(2-hydroxypropoxy)-pyrrolo[2,3-d]pyrimidin-7-yl]-3,4-dihydroxy-tetrahydrofuran-2-yl]-methoxymethylphos-phonic acid], the IC50 (in test [1]; on Human CD73) was below 10 nM each time.

As to `O=P(O)(O)COC[C@H]1O[C@@H](n2ccc3c(NC4CCCCC4)nc(Cl)nc32)[C@H](O)[C@@H]1O` [Compound 111, [(2R,3S,4R,5R)-5-[2-chloro-4-(cyclohexyl-amino)pyrrolo[2,3-d]-pyrimidin-7-yl]-3,4-dihydroxy-tetrahydro-furan-2-yl]methoxy-methylphosphonic acid], the IC50 (in test [1]; at Human CD73) was below 10 nM throughout.

Regarding `C[C@@H](Nc1nc(C#N)nc2c1ccn2[C@@H]1O[C@H](COCP(=O)(O)O)[C@@H](O)[C@H]1O)c1ccc(F)cc1` [Compound 73, [(2R,3S,4R,5R)-5-[2-cyano-4-[[(1R)-1-(4-fluorophenyl)ethyl]-amino]pyrrolo[2,3-d]-pyrimidin-7-yl]-3,4-dihydroxy-tetrahydro-furan-2-yl]methoxy-methylphosphonic acid], the IC50 (in test [1]; at Human CD73) was below 10 nM in each case.

Take `C[C@H](Nc1nc(Cl)nc2c1c(F)cn2[C@@H]1O[C@H](COCP(=O)(O)O)[C@@H](O)[C@H]1O)c1ccccc1` [Compound 76, ((((2R,3S,4R,5R)-5-(2-chloro-5-fluoro-4-(((S)-1-phenylethyl)amino)-7H-pyrrolo[2,3-d]pyrimidin-7-yl)-3,4-dihydroxytetrahydrofuran-2-yl)methoxy)methyl)phosphonic acid]: the IC50 in test [1] was 10 to 100 nM; at Human CD73 it was below 10 nM.

Consider `C[C@H](Nc1nc(Cl)nc2c1ncn2[C@@H]1O[C@H](CS(=O)(=O)CP(=O)(O)O)[C@@H](O)[C@H]1O)c1ccccc1` [Compound 152, [(2S,3S,4R,5R)-5-[2-chloro-6-[[(1S)-1-phenylethyl]amino]-purin-9-yl]-3,4-dihydroxy-tetrahydro-furan-2-yl]methyl-sulfonylmethylphos-phonic acid], for which the IC50 (in test [1]; on Human CD73) was 10 to 100 nM throughout.
